Assay [1] has as its system mitochondria of the yeast Saccharomyces cerevisiae. Put plainly: Inhibition of mitochondrial respiration (photometric cytochrome c reduction rate in isolated mitochondria). The format is biochemical. The settings on record: Saccharom. cerevisiae mitochondria; relative to reference substance enol ether stilbene. The text has this: To determine the effect of the compounds according to the invention on mitochondrial respiration, it is first necessary to isolate the mitochondria from the test organisms. In the case of the yeast Saccharomyces cerevisiae, a 30 to 40% cell suspension of the fungus is disrupted, to this end, in an aqueous solution of 0.6 M Mannitol+0.01 M tris[hydroxymethyl]aminomethane+0.002 M disodium ethylenediaminetetraacetate (pH 6.8) using a glass bead mill, and the extract is fractionated by means of differential centrifugation at 1000×g and 12000×g. The mitochondria are in the precipitate of the 12000×g centrifugation.
The effect of the compounds on the respiration chain is determined by adding a solution of the test compound in dimethyl sulfoxide to a suspension of mitochondria in an aqueous solution of 0.01 M tris[hydroxymethyl]aminomethane+0.65 M sorbitol+0.01 M KH2 PO4 +0.01 M KCl+0.0004 M disodium ethylenediamine-tetraacetate+0.3% bovine serum albumin+0.0007 M KCN+6×10^-6 ubiquinone-50+0.01 M sodium succinate+0.15% cytochrome c (pH 7.5), and the reduction rate of the cytochrome c is determined photometrically on the basis of the increased absorption at 546 nm. A batch with a corresponding amount of pure DMSO is used as control. The inhibitory value for the active ingredient at the concentration shown in each case is then calculated as follows. [formula] where ΔE is the difference in absorption, At the difference in time, [formula]
In the table which follows, the action of a series of compounds according to the invention as respiration inhibitors on the mitochondria of the yeast Saccharomyces cerevisiae, the phyto-pathogenic fungus Drechslera sorokiniana and the common housefly Musca domestics.
In each case, the inhibition of mytochondrial respiration is given as I50 value (this being the concentration of test substance where a 50% inhibition is observed) and as F value, this being a relative value defined as follows: [formula]
The reference substance is the so-called enol ether stilbene, of the following formula: [drawing 80]

For another assay, the system named is Tetranychus telarius. Put plainly: Tetranychus telarius (greenhouse red spider mite), contact action. The class given is in vivo. The conditions noted are these: 120 h, infested dwarf beans in pots, assessed after 5 days in the greenhouse, read-out: limit concentration (lowest concentration still causing 80-100% inhibition or mortality). The text has this: (§1) The active ingredients were formulated
(§2) a) as a 0.1% strength solution in acetone or
(§3) b) as a 10% emulsion in a mixture of 70% by weight of cyclohexanol, 20% by weight of Nekanil® LN (Lutensol® AP6, wetting agent having emulsifying and dispersant action based on ethoxylated alkylphenols) and 10% by weight of Emulphor® EL emulsifier based on ethoxylated fatty alcohols)
(§4) and diluted to give the desired concentraton, using acetone in the case of a) and water in the case of b).
(§5) After the experiments had been concluded, in each case the lowest concentration at which the compounds still caused an 80-100% inhibition or mortality in comparison with untreated controls was determined (limit or minimum concentration).
After 5 days in the greenhouse, the result of the control measures was determined by means of a stereomicroscope.

The subject of a further assay is Heliothis virescens. The assay can be described thus: Heliothis virescens (tobacco budworm), contact/stomach action. The conditions noted are these: tobacco plants, 3rd instar larvae, mortality and antifeeding effect after 48 hours, read-out: limit concentration (lowest concentration still causing 80-100% inhibition or mortality). The format is in vivo.
Description: as §1, §2, §3, §4, §5
Tobacco plants approximately 10 cm high were treated with the aqueous preparation of active ingredient. After the plants had dried, they were populated with in each case 10 3rd instar larvae. Mortality and antifeeding effect were assessed after 48 hours.

The next assay concerns Aphis fabae. The assay can be described thus: Aphis fabae (blackbean aphid), contact action. The format is in vivo. The conditions noted are these: infested dwarf beans (Vicia faba), mortality after 24 hours, read-out: limit concentration (lowest concentration still causing 80-100% inhibition or mortality).
Description: as §1, §2, §3, §4, §5
Severely infested dwarf beans (Vicia faba) were treated with the aqueous preparation of active ingredient. After 24 hours, the mortality rate was determined.

Consider `CNC(=O)C(=NOC)c1ccccc1ON=C(C)C(C)=NOC` [I(2).3, N-methyl-methoxyimino-[2-(2-methoxyimino-1-methylpropylideneaminooxy)phenyl]acetamide], for which, in assay [1], the “F value (relative value)” value turned out to be 9.6. As to `CCC(=NOc1ccccc1C(=COC)C(=O)OC)C(C)=NOC` [I(2).14], in the assay on Tetranychus telarius, the minimal effective concentration is no more than 200 µg/mL.

Turning to `CCC(=NOC)C(C)=NOc1ccccc1C(=NOC)C(=O)OC` [I(2).21], the minimal effective concentration in the assay with Tetranychus telarius is no more than 200 µg/mL.

Take `C#CCON=C(C)C(C)=NOc1ccccc1C(=COC)C(=O)OC` [I(2).17]: the minimal effective concentration is no more than 200 µg/mL with Tetranychus telarius and 40 µg/mL with Heliothis virescens.

Take `CON=C(C(=O)OC)c1ccccc1ON=C(C)c1cccc(C)c1` [I(1).1, methyl methoxyimino-[2-(1-meta-tolylethylideneaminooxy)phenyl]acetate]: the “F value (relative value)” value in assay [1] worked out at 0.96. Take `C#CCON=C(C)C(C)=NOc1ccccc1C(=NOC)C(=O)OC` [I(2).16]: in the assay with Tetranychus telarius, the minimal effective concentration is no more than 200 µg/mL. With `CCON=C(C)C(C)=NOc1ccccc1C(=NOC)C(=O)OC` [I(2).9], the results for the minimal effective concentration in the assay with Tetranychus telarius and in the assay with Aphis fabae were no more than 200 µg/mL and 200 µg/mL, respectively. As for `COC=C(C(=O)OC)c1ccccc1ON=C(C)C(C)=NOC` [I(2).7, methyl 3-methoxy-[2-(2-methoxyimino-1-methyl-propylideneaminooxy)phenyl]acrylate], the minimal effective concentration in the assay with Tetranychus telarius is no more than 200 µg/mL. On the same count and under the same terms, next, `COC=C(C(=O)OC)c1ccccc1ON=C(C)C(C)=NOC(C)C` [I(2).6]: no more than 200 µg/mL. On to `CNC(=O)C(=NOC)c1ccccc1ON=C(C)c1cccc(C)c1` [I(1).2, 2-methoxyimino-N-methyl-2-[2-(1-meta-tolylethylideneamino-oxy)phenyl]acetamide], for which the “F value (relative value)” value in assay [1] is on record as 11. Turning to `CON=C(C)C(C)=NOc1ccccc1C(=NOC)C(=O)OC` [I(2).2, methyl methoxyimino-[2-(2-methoxyimino-1-methylpropylideneaminooxy)phenyl]acetate], the minimal effective concentration in the assay on Tetranychus telarius was no more than 200 µg/mL. Besides, in assay [1], the “F value (relative value)” value was 0.43.

For the compound `CCC(=NOC)C(C)=NOc1ccccc1C(=COC)C(=O)OC` [I(2).20], in the assay with Tetranychus telarius, the minimal effective concentration is no more than 200 µg/mL. Turning to `CON=C(C(=O)OC)c1ccccc1ON=C(C)C(C)=NOC(C)C` [I(2).13], the minimal effective concentration with Tetranychus telarius was no more than 200 µg/mL. For the compound `CCON=C(C)C(C)=NOc1ccccc1C(=COC)C(=O)OC` [I(2).15], the minimal effective concentration with Tetranychus telarius was no more than 200 µg/mL. As for `CNC(=O)C(=NOC)c1ccccc1ON=C(C)C(C)=NOC(C)C` [I(2).8], the minimal effective concentration in the assay on Tetranychus telarius was no more than 200 µg/mL. Regarding `CCC(=NOC)C(C)=NOc1ccccc1C(=NOC)C(=O)NC` [I(2).19], the minimal effective concentration with Tetranychus telarius is no more than 200 µg/mL.

(Values after patent publication US5994359A, “Imino oxyphenyl acetic acid derivatives, methods and intermediates for their preparation and use thereof” (BASF Aktiengesellschaft, priority 1995, dated 1999).)
